This note sets out measurements from ChEMBL document CHEMBL1155651, “New prenylated anthraquinones and xanthones from Vismia guineensis” (2000).

SMILES strings stand for the structures.

What all share (assay type): functional, PBL
The nature of assay [1]: Antimitotic activity in human peripheral blood lymphocytes assessed as mitotic index at 25 uM.
Assay [2] is described as follows: Antimitotic activity in human peripheral blood lymphocytes assessed as mitotic index at 1 uM.
A short description of assay [3]: Antimitotic activity in human peripheral blood lymphocytes assessed as mitotic index at 0.5 uM.

Regarding `COC(C)(C)CCC/C(C)=C/COc1cc(O)c2c(c1)Cc1cc(C)cc(O)c1C2=O`, the results for the Activity in assay [1], in assay [2] and in assay [3] were 49.9%, 48.7% and 47.4%, respectively.
Regarding `C[C@]12CC[C@@H]3c4ccc(OC(=O)N(CCCl)CCCl)cc4CC[C@H]3[C@@H]1CC[C@@H]2O` [ESTRAMUSTINE], in assay [2], the Activity is recorded as 78.7%.
Take `CN[C@H]1CCc2cc(OC)c(OC)c(OC)c2-c2ccc(OC)c(=O)cc21` [DEMECOLCINE]: the Activity in assay [2] is on record as 70.1%.
